The source of these data is patent US20150065423A1, “RAPID ACTING INJECTABLE FORMULATIONS” (Perosphere, Inc., priority 2013, published 2015).

Data set [1] in a line: Soluble concentration of nitroglycerin measured by HPLC. The note with it: aqueous with cosolvent or surfactant or cyclodextrin. From the text:
The resultant suspension was centrifuged and the supernatant withdrawn to become the test article. […] The results are depicted in FIG. 1.

For data set [2] the following is noted: "it is believed"; cited from earlier work.

SMILES strings stand for the structures. In brackets after ≈: the same amount, converted by molar mass.

Regarding `O=[N+]([O-])OCC(CO[N+](=O)[O-])O[N+](=O)[O-]` [nitroglycerin], the solubility in data set [1] (soluble concentration of nitroglycerin, in presence of 5% aqueous solution of Pluronic F127) is approximately 3800 µg/mL; in data set [1] (soluble concentration of nitroglycerin, in presence of 5% aqueous solution of Tween 80) it was approximately 4500 µg/mL; in data set [1] (thermodynamic from solid, final concentration of nitroglycerin (solubility limit)), approximately 1000 µg/mL (≈ 4.4 mM); in data set [1] (thermodynamic from solid, soluble concentration of nitroglycerin, in presence of 20% aqueous solution of PEG3350), 2000 µg/mL. For the same molecule, the water solubility in data set [2] is less than 1000 µg/mL.

One may read the solubility as how much of the substance goes into solution per volume.
